pIC50: −log10 of the molar value. Values joined by “and” are separate entries in the source; they are usually repeats but may differ in a detail not shown here. Equal entries are not always repeated.
Tests used:
[1] = Pharmacokinetic profile in brain; format: in vivo, mice; details: 12.5 mg/kg IP
[2] = Pharmacokinetic profile in plasma; format: in vivo, mice; details: 12.5 mg/kg IP
Leukemia K562 cell = Leukemia K562 cell proliferation/viability assay (CellTiterGlo, 48 hours); format: cell-based; parameters: unit not given here; details: K562 cells
Description: C-Abl is encoded by the ABL1 gene (NCBI Gene ID NO. 25). […] Assays for determining if a small molecule inhibits c-Abl activity are known. Non-limiting examples include cell proliferation assays using cancer cells that are BCR-Abl positive and depend on BCR-Abl for growth, such as the leukemia cell line K562. […] In some embodiments described herein, compounds are tested for ability to reduce K562 cell proliferation in an HTS adapted assay which measures cell viability using the reagent CellTiterGlo after 48 hours treatment.

[3] = system: P. falciparum strain NF54 asexual parasites; experiment: Asexual stage parasite growth inhibition, SYBR Green assay, 72 hours; format: cell-based; details: NF54, 72 hours; for pIC50: Plasmodium falciparum
Description: In this example, several of the c-Abl inhibitors were tested in the asexual […] strain of P. falciparum parasites for activity against malaria. […] The pre-diluted parasites were dispensed into a 1536-well plate (2.5 μL/well). […] The fluorescence of each well was measured at 520 nm following excitation at 490 nm using a ViewLux platereader (PerkinElmer).

TLE mice model = experiment: Pilocarpine-induced status epilepticus (SE) after 15 days of supplemented diet; format: in vivo, mice (C57BL/6); parameters: Survival % / Survival %, mean: concentration or dose not given beside the values
Description: (§1) In this example, the ability of compound embodiments of the present disclosure to increase survival and diminish seizure symptoms in a TLE mice model was evaluated. […] The animals' weights were determined the week before and during the two weeks of c-Abl inhibitors treatment (results are provided in Table 12 and are illustrated graphically in FIG. 28). After 15 days of feeding, status epilepticus (SE) induction was evaluated. The mice were IP injected with Scopolamine (1.5 mg/Kg) and after 15 minutes, the SE was induced by IP injection of Pilocarpine (420 mg/Kg). The animals' behavior and the seizures induction was evaluated according to Racine's scale and the survival was determined during 60 minutes post-SE induction. […] Results are tabulated in Table 13, below and also are illustrated graphically in FIGS. 29A-29D.

[4] = Blood and serum analysis after one month of supplemented diet; format: in vivo, mice (C57BL/6×C3H); details: 1 month diet (Nilotinib 200 ppm; NCGC00373060 67 ppm), individual mice
Excerpt: After this one-month period, blood and serum was obtained from the mice and analyzed.

[5] = Body weight during supplemented diet in TLE mice study; format: in vivo, mice (C57BL/6)
Description: as §1

APP/PSEN1 mice = experiment: APP/PSEN1 AD mice model, water maze, Barnes maze and brain histology; details: water maze
Description: The Barnes maze test is a more sensible test that detects the earlier and subtle cognitive alterations.

neurons = experiment: Apoptotic nuclei induced by Aβ fibrils, Hoescht staining; format: cell-based
Description: Additional results from another compound embodiment, NCGC00355553, are provided by FIG. 9C. Apoptotic nuclei were evaluated by Hoescht staining.

[6] = individual mice, diet 67 ppm NCGC00373060 or 200 ppm Nilotinib
[7] = mean, diet 67 ppm NCGC00373060 or 200 ppm Nilotinib

SMILES: O=C(Nc1ccc(OC(F)(F)Cl)cc1)c1cnc(N2CC[C@@H](O)C2)c(-c2ccn[nH]2)c1 [ABL001]
- Brain concentration ([1]; Time 0.167): 0.330 µmol/kg
- Brain concentration ([1]; Time 0.5): 0.534 µmol/kg
- Brain concentration ([1]; Time 1): 0.597 µmol/kg
- Brain concentration ([1]; Time 1.5): 0.442 µmol/kg
- Brain concentration ([1]; Time 2): 0.336 µmol/kg
- Brain concentration ([1]; Time 4): 0.119 µmol/kg
- Brain concentration ([1]; Time 7): 0.056 µmol/kg
- Brain concentration ([1]; Time 24): 0.003 µmol/kg
- Plasma concentration ([2]; Time 0.167): 5.454 µM
- Plasma concentration ([2]; Time 0.5): 9.137 µM
- Plasma concentration ([2]; Time 1): 11.174 µM
- Plasma concentration ([2]; Time 1.5): 10.189 µM
- Plasma concentration ([2]; Time 2): 5.483 µM
- Plasma concentration ([2]; Time 4): 1.628 µM
- Plasma concentration ([2]; Time 7): 0.399 µM
- Plasma concentration ([2]; Time 24): 0.007 µM

SMILES: Cc1cn(-c2cc(NC(=O)c3ccc(C)c(Nc4nccc(-c5cccnc5)n4)c3)cc(C(F)(F)F)c2)cn1 [Nilotinib]
- Efficacy (Leukemia K562 cell): −86.5
- % Killing [3]: 98.7%
- pIC50 [3]: 6.19
- Survival % (TLE mice model; individual mice, 60 minutes post-SE induction): 100%
- Latency SE (TLE mice model; [6]): 30 min and 22 min
- Survival %, mean (TLE mice model; mean, 60 minutes post-SE induction): 100%
- Latency SE, mean (TLE mice model; [7]): 26 min
- SE %, mean (TLE mice model; [7]): 40%
- ALT [4]: 36.0 IU/L and 26.0 IU/L
- AST [4]: 142.0 IU/L and 114.0 IU/L
- Alkaline phosphatase [4]: 386.4 IU/ and 278.2 IU/
- Bacilliformes [4]: 0 µL⁻¹
- Bacilliformres (%) [4]: 0%
- Blastos [4]: 0 µL⁻¹
- Blood urea nitrogen [4]: 19.7 mg/dL and 18.2 mg/dL
- C.H.C.M. [4]: 29.3 g/dL and 28.9 g/dL
- Calcium [4]: 10.4 mg/dL and 10.2 mg/dL
- Creatinine [4]: 1.0 mg/dL and 0.8 mg/dL
- Eosinophils [4]: 32 µL⁻¹ and 0 µL⁻¹
- Eosinophils (%) [4]: 1% and 0%
- Erythrocytes [4]: 5.9e+06 µL⁻¹ and 8.6e+06 µL⁻¹
- Glucose (without fluoride) [4]: 84.0 mg/dL and 56.0 mg/dL
- H.C.M. [4]: 14.9 pg/cel and 14.7 pg/cel
- Hematocrit [4]: 30.0% and 43.6%
- Hemoglobin [4]: 8.8 g/dL and 12.6 g/dL
- Juvenile [4]: 0 µL⁻¹
- Leukocytes [4]: 3,200 /μL and 3,300 /μL
- Lymphocytes (%) [4]: 60% and 62%
- Mean platelet vol. [4]: 6.9 fL and 6.1 fL
- Monocytes (%) [4]: 4% and 15%
- Morphology leukocytes [4]: Normal
- Myelocytes [4]: 0 µL⁻¹
- Reticulocytes (%) [4]: 0.5% and 0.6%
- Reticulocytes (×10^3/μL) [4]: 29.6 ×10^3/μL and 51.3 ×10^3/μL
- Segmented [4]: 759 µL
- Segmented (%) [4]: 35% and 23%
- Segmented (μL) [4]: 1,120 μL
- Thrombocyte morphology [4]: Normal
- Thrombocytes [4]: 780,000 /μL and 689,000 /μL
- Total cholesterol [4]: 114.0 mg/dL and 84.0 mg/dL
- V.C.M. [4]: 50.8 fL and 51.0 fL
- V.H.S. [4]: 3.0 and 6.0
- Weight [4]: 42.7 g and 25.2 g
- Youth (%) [4]: 0%
- Lymphocytes ([4]; absolute count): 1,920 and 2,046
- Monocytes ([4]; absolute count): 128 and 495
- Body weight week 4 [5, 6]: 17 gr (2×) and 19 gr and 15 gr (2×) and 14 gr (2×) and 18 gr (2×)
- Body weight week 5 [5, 6]: 18 gr (3×) and 21 gr and 17 gr and 19 gr and 16 gr and 20 gr (2×)
- Body weight week 3 ([5]; individual mice, week before diet (67 ppm NCGC00373060 or 200 ppm Nilotinib)): 15 gr (2×) and 18 gr and 11 gr and 9 gr (2×) and 12 gr and 14 gr and 16 gr
- Body weight week 4, mean [5, 7]: 16 gr
- Body weight week 5, mean [5, 7]: 19 gr
- Body weight week 3, mean ([5]; mean, week before diet (67 ppm NCGC00373060 or 200 ppm Nilotinib)): 13 gr

SMILES: CS(=O)(=O)Nc1cccc(-c2ccc3c(c2)C(=O)Nc2cc(OC(F)(F)F)ccc2N3)c1 [NCGC00355551, N-(3-(11-Oxo-8-(trifluoromethoxy)-10,11-dihydro-5H-dibenzo[b,e][1,4]diazepin-2-yl)phenyl)methanesulfonamide]
- Efficacy (Leukemia K562 cell): −85.3
- cognitive decline in APP/PSEN1 mice (APP/PSEN1 mice): protects APP/PSEN1 mice against cognitive decline

SMILES: O=C1Nc2cc(OC(F)(F)F)ccc2Oc2ccc(-c3ccnc(N4CCOCC4)c3)cc21 [NCGC00411866, 2-(2-Morpholinopyridin-4-yl)-8-(trifluoromethoxy)dibenzo[b,f][1,4]oxazepin-11(10H)-one]
- % Killing [3]: 92.9%
- pIC50 [3]: 5.01

SMILES: NC(=O)c1cccc(-c2cc(Nc3ccc(OC(F)(F)F)cc3)ncn2)c1 [GNF-2]
- Efficacy (Leukemia K562 cell): −85.2
- % Killing [3]: 86.0%
- pIC50 [3]: 5.85

SMILES: CC(C)(O)c1cccc(-c2ccc3c(c2)C(=O)Nc2cc(OC(F)(F)F)ccc2O3)c1 [NCGC00411876, 2-(3-(2-Hydroxypropan-2-yl)phenyl)-8-(trifluoromethoxy)dibenzo[b,f][1,4]oxazepin-11(10H)-one]
- Efficacy (Leukemia K562 cell): −86.3

SMILES: O=C1Nc2cc(OC(F)(F)F)ccc2Nc2ccc(-c3cccc(C(=O)N4CCNCC4)c3)cc21 [NCGC00355569, 2-(3-(Piperazine-1-carbonyl)phenyl)-8-(trifluoromethoxy)-5,10-dihydro-11H-dibenzo[b,e][1,4]diazepin-11-one]
- Efficacy (Leukemia K562 cell): −97.3

SMILES: O=C1Nc2cc(OC(F)(F)F)ccc2Nc2ccc(-c3cn[nH]c3)cc21 [NCGC00355553, 2-(1H-Pyrazol-4-yl)-8-(trifluoromethoxy)-5,10-dihydro-1-dibenzo[b,e][1,4]diazepin-11-one]
- apoptotic nuclei induced by Aβ fibrils (neurons): prevent increases in apoptotic nuclei induced by Aβ fibrils

SMILES: CS(=O)(=O)Nc1cccc(-c2ccc3c(c2)C(=O)Nc2cc(OC(F)(F)F)ccc2O3)c1 [NCGC00356665, N-(3-(11-Oxo-8-(trifluoromethoxy)-10,11-dihydrodibenzo[b,f][1,4]oxazepin-2-yl)phenyl)methanesulfonamide]
- Efficacy (Leukemia K562 cell): −83.8

SMILES: CS(=O)(=O)Nc1cccc(-c2ccc3c(c2)CNc2cc(OC(F)(F)F)ccc2O3)c1 [NCGC00371644, N-(3-(8-(Trifluoromethoxy)-10,11-dihydrodibenzo[b,f][1,4]oxazepin-2-yl)phenyl)methanesulfonamide]
- Efficacy (Leukemia K562 cell): −90.7

SMILES: NC(=O)c1cccc(-c2ccc3c(c2)C(=O)Nc2cc(OC(F)(F)F)ccc2N3)c1 [NCGC00354777, 3-(11-Oxo-8-(trifluoromethoxy)-10,11-dihydro-5H-dibenzo[b,e][1,4]diazepin-2-yl)benzamide]
- Efficacy (Leukemia K562 cell): −95.9

SMILES: CS(=O)(=O)Nc1cccc(-c2ccc3c(c2)Oc2ccc(OC(F)(F)F)cc2NC3=O)c1 [NCGC00384235, N-(3-(11-Oxo-8-(trifluoromethoxy)-10,11-dihydrodibenzo[b,f][1,4]oxazepin-3-yl)phenyl)methanesulfonamide]
- Efficacy (Leukemia K562 cell): −99.8

SMILES: O=C1Nc2cc(OC(F)(F)F)ccc2Oc2ccc(-c3cnn(C4COC4)c3)cc21 [NCGC00387298, 2-(1-(Oxetan-3-yl)-1H-pyrazol-4-yl)-8-(trifluoromethoxy)dibenzo[b,f][1,4]oxazepin-11(10H)-one]
- Efficacy (Leukemia K562 cell): −93.8

SMILES: NC(=O)Cn1cc(-c2ccc3c(c2)C(=O)Nc2cc(OC(F)(F)F)ccc2O3)cn1 [NCGC00387404, 2-(4-(11-Oxo-8-(trifluoromethoxy)-10,11-dihydrodibenzo[b,f][1,4]oxazepin-2-yl)-11-pyrazol-1-yl)acetamide]
- Efficacy (Leukemia K562 cell): −8.8

SMILES: CC(=O)NCc1ccc(-c2ccc3c(c2)C(=O)Nc2cc(OC(F)(F)F)ccc2O3)s1 [NCGC00388557, N-((5-(11-Oxo-8-(trifluoromethoxy)-10,11-dihydrodibenzo[b,f][1,4]oxazepin-2-yl)thiophen-2-yl)methyl)acetamide]
- Efficacy (Leukemia K562 cell): −81.9

SMILES: CN1C(=O)c2cc(-c3cccc(N(C)S(C)(=O)=O)c3)ccc2Oc2ccc(OC(F)(F)F)cc21 [NCGC00384286, N-Methyl-N-(3-(10-methyl-11-oxo-8-(trifluoromethoxy)-10,11-dihydrodibenzo[b,f][1,4]oxazepin-2-yl)phenyl)methanesulfonamide]
- Efficacy (Leukemia K562 cell): −54.6

SMILES: CC(=O)c1csc(-c2ccc3c(c2)C(=O)Nc2cc(OC(F)(F)F)ccc2O3)c1 [NCGC00388580, 2-(4-Acetylthiophen-2-yl)-8-(trifluoromethoxy)dibenzo[b,f][1,4]oxazepin-11(10H)-one]
- Efficacy (Leukemia K562 cell): −92.6
